According to the NIST ThermoML archive (doi:10.1021/acs.jced.7b00773):

Conditions: Liquid; for viscosity: Concentric cylinders viscometry

CCCC[N+]1(C)CCCC1.O=S(=O)([N-]S(=O)(=O)C(F)(F)F)C(F)(F)F
100 kPa
Conditions	viscosity [mPa·s]
293.15 K	98.53
303.15 K	61.87
313.15 K	41.45
323.15 K	29.25
333.15 K	21.53
343.15 K	16.4

Conditions	mass density [kg/m3]
293.15 K, 100 kPa, Vibrating tube method	1398.7
303.15 K, 100 kPa, Vibrating tube method	1389.8
311.6 K, 10000 kPa, Bellows volumetry	1389.1
311.6 K, 20000 kPa, Bellows volumetry	1396.1
311.6 K, 30000 kPa, Bellows volumetry	1402.6
311.6 K, 40000 kPa, Bellows volumetry	1408.7
311.6 K, 50000 kPa, Bellows volumetry	1414.5
311.6 K, 60000 kPa, Bellows volumetry	1420.1
311.6 K, 70000 kPa, Bellows volumetry	1425.5
311.6 K, 80000 kPa, Bellows volumetry	1430.7
311.6 K, 90000 kPa, Bellows volumetry	1435.5
311.6 K, 100000 kPa, Bellows volumetry	1440.4
311.6 K, 110000 kPa, Bellows volumetry	1445.5
311.6 K, 120000 kPa, Bellows volumetry	1449.8
311.6 K, 130000 kPa, Bellows volumetry	1454.3
311.6 K, 140000 kPa, Bellows volumetry	1458.6
311.6 K, 150000 kPa, Bellows volumetry	1462.9
311.6 K, 160000 kPa, Bellows volumetry	1467.2
311.6 K, 170000 kPa, Bellows volumetry	1471.2
311.6 K, 180000 kPa, Bellows volumetry	1475.1
311.6 K, 190000 kPa, Bellows volumetry	1479
311.6 K, 200000 kPa, Bellows volumetry	1483
313.15 K, 100 kPa, Vibrating tube method	1381
323.15 K, 100 kPa, Vibrating tube method	1372.4
331.5 K, 10000 kPa, Bellows volumetry	1372.4
331.5 K, 20000 kPa, Bellows volumetry	1379.6
331.5 K, 30000 kPa, Bellows volumetry	1386.5
331.5 K, 40000 kPa, Bellows volumetry	1393
331.5 K, 50000 kPa, Bellows volumetry	1399.1
331.5 K, 60000 kPa, Bellows volumetry	1405
331.5 K, 70000 kPa, Bellows volumetry	1410.6
331.5 K, 80000 kPa, Bellows volumetry	1416
331.5 K, 90000 kPa, Bellows volumetry	1421.3
331.5 K, 100000 kPa, Bellows volumetry	1426.6
331.5 K, 110000 kPa, Bellows volumetry	1431.4
331.5 K, 120000 kPa, Bellows volumetry	1436
331.5 K, 130000 kPa, Bellows volumetry	1440.6
331.5 K, 140000 kPa, Bellows volumetry	1445.1
331.5 K, 150000 kPa, Bellows volumetry	1449.5
331.5 K, 160000 kPa, Bellows volumetry	1454
331.5 K, 170000 kPa, Bellows volumetry	1458.1
331.5 K, 180000 kPa, Bellows volumetry	1462.1
331.5 K, 190000 kPa, Bellows volumetry	1466.1
331.5 K, 200000 kPa, Bellows volumetry	1470.2
333.15 K, 100 kPa, Vibrating tube method	1363.9
343.15 K, 100 kPa, Vibrating tube method	1355.5
351.6 K, 10000 kPa, Bellows volumetry	1355.8
351.6 K, 20000 kPa, Bellows volumetry	1363.3
351.6 K, 30000 kPa, Bellows volumetry	1370.6
351.6 K, 40000 kPa, Bellows volumetry	1377.4
351.6 K, 50000 kPa, Bellows volumetry	1383.9
351.6 K, 60000 kPa, Bellows volumetry	1390
351.6 K, 70000 kPa, Bellows volumetry	1395.9
351.6 K, 80000 kPa, Bellows volumetry	1401.7
351.6 K, 90000 kPa, Bellows volumetry	1407.4
351.6 K, 100000 kPa, Bellows volumetry	1412.4
351.6 K, 110000 kPa, Bellows volumetry	1417.5
351.6 K, 120000 kPa, Bellows volumetry	1422.3
351.6 K, 130000 kPa, Bellows volumetry	1427.1
351.6 K, 140000 kPa, Bellows volumetry	1431.7
351.6 K, 150000 kPa, Bellows volumetry	1436.5
351.6 K, 160000 kPa, Bellows volumetry	1440.8
351.6 K, 170000 kPa, Bellows volumetry	1445.1
